# Results reported in ChEMBL document CHEMBL4270506, “Recent advances in drug discovery of phototherapeutic non-porphyrinic anticancer agents” (Eur J Med Chem, 2017).
# pEC50: −log10 of the molar value.
# Columns and labels:
# [1] = Dark toxicity in human LoVo cells assessed as reduction in cell viability after 72 hrs by MTT assay; type: cell-based
# [2] = system: LoVo; assay: Phototoxicity in human LoVo cells assessed as cell viability at 2 to 8 umol/L pre-incubated for 30 mins before irradiation at 365 nm at 3.75 J/cm2 and measured after 72 hrs by MTT assay; type: functional; conditions: light or radiation study
# [3] = Dark toxicity in human Jurkat cells assessed as reduction in cell viability after 72 hrs by MTT assay; type: cell-based
# [4] = system: Jurkat; assay: Phototoxicity in human Jurkat cells assessed as cell viability at 2 to 8 umol/L pre-incubated for 30 mins before irradiation at 365 nm at 3.75 J/cm2 and measured after 72 hrs by MTT assay; type: functional; conditions: light or radiation study
# [5] = Dark toxicity in human K562 cells assessed as reduction in cell viability after 72 hrs by MTT assay; type: cell-based
# [6] = system: K562; assay: Phototoxicity in human K562 cells assessed as cell viability at 2 to 8 umol/L pre-incubated for 30 mins before irradiation at 365 nm at 3.75 J/cm2 and measured after 72 hrs by MTT assay; type: functional; conditions: K562, light or radiation study
# [7] = Dark toxicity in human A431 cells assessed as reduction in cell viability after 72 hrs by MTT assay; type: cell-based, A-431
# [8] = system: A-431; assay: Phototoxicity in human A431 cells assessed as cell viability at 2 to 8 umol/L pre-incubated for 30 mins before irradiation at 365 nm at 3.75 J/cm2 and measured after 72 hrs by MTT assay; type: functional; conditions: A-431, light or radiation study
# [9] = system: SK-OV-3; assay: Phototoxicity in human SKOV3 cells assessed as reduction in cell viability in presence of irradiation with green lED light at 25.2 J/cm2 for 2 hrs followed by incubation in dark for 24 hrs by MTT assay; type: functional, cell-based; conditions: SK-OV-3, light or radiation study
# [10] = Dark toxicity in human […] cells assessed as cell viability at 10 ug/ml by CCK8 assay; type: cell-based; conditions: read-out: Activity
# [11] = Phototoxicity in human […] cells assessed as cell viability at 10 ug/ml under irradiation at 457 nm at 20 J/cm2 by CCK8 assay; type: functional; conditions: light or radiation study, read-out: Activity
# [12] = Lipophilicity, log P of the compound; type: physicochemical; conditions: octanol/water
# [13] = Dark toxicity in mouse DLA cells assessed as inhibition of cell viability by trypan blue dye exclusion method; type: cell-based; conditions: read-out: INH
# [14] = Phototoxicity in mouse DLA cells assessed as inhibition of cell viability illuminated for 10 mins at total dose of 46 J/cm2 irradiation by trypan blue dye exclusion method; type: functional
# [15] = Dark toxicity in human BxPC3 cells assessed as inhibition of cell growth at 6.25 to 25 uM incubated for 24 hrs by MTT assay; type: cell-based, BXPC-3; conditions: read-out: GI
# [16] = system: BXPC-3; assay: Phototoxicity in human BxPC3 cells assessed as inhibition of cell growth at 6.25 uM pre-incubated for 3 hrs before irradiation with 780 nm light for 1 mins and measured after 24 hrs by MTT assay; type: functional; conditions: BXPC-3, light or radiation study, read-out: GI
# [17] = system: BXPC-3; assay: Phototoxicity in human BxPC3 cells assessed as inhibition of cell growth at 12.5 uM pre-incubated for 3 hrs before irradiation with 780 nm light for 1 mins and measured after 24 hrs by MTT assay; type: functional; conditions: BXPC-3, light or radiation study, read-out: GI
# [18] = system: BXPC-3; assay: Phototoxicity in human BxPC3 cells assessed as inhibition of cell growth at 25 uM pre-incubated for 3 hrs before irradiation with 780 nm light for 1 mins and measured after 24 hrs by MTT assay; type: functional; conditions: BXPC-3, light or radiation study, read-out: GI
# [19] = Dark toxicity in human MIAPaCa2 cells assessed as inhibition of cell growth at 6.25 to 25 uM incubated for 24 hrs by MTT assay; type: cell-based, MIA PaCa-2; conditions: read-out: GI
# [20] = system: MIA PaCa-2; assay: Phototoxicity in human MIAPaCa2 cells assessed as inhibition of cell growth at 6.25 uM pre-incubated for 3 hrs before irradiation with 780 nm light for 1 mins and measured after 24 hrs by MTT assay; type: functional; conditions: MIA PaCa-2, light or radiation study, read-out: GI
# [21] = system: MIA PaCa-2; assay: Phototoxicity in human MIAPaCa2 cells assessed as inhibition of cell growth at 12.5 uM pre-incubated for 3 hrs before irradiation with 780 nm light for 1 mins and measured after 24 hrs by MTT assay; type: functional; conditions: MIA PaCa-2, light or radiation study, read-out: GI
# [22] = system: MIA PaCa-2; assay: Phototoxicity in human MIAPaCa2 cells assessed as inhibition of cell growth at 25 uM pre-incubated for 3 hrs before irradiation with 780 nm light for 1 mins and measured after 24 hrs by MTT assay; type: functional; conditions: MIA PaCa-2, light or radiation study, read-out: GI
# [23] = Dark toxicity in human […] cells assessed as cell viability at 50 ug/ml by CCK8 assay; type: cell-based; conditions: read-out: Activity
# [24] = Phototoxicity in human […] cells assessed as cell viability at 5 ug/ml under irradiation at 532 nm by CCK8 assay; type: functional; conditions: light or radiation study, read-out: Activity
smiles,measurement,setting,value
CCOC(=O)c1cc2c(n1Cc1ccccc1)-c1nc(N)ncc1CC2,GI50 at 72 h,[1],14200 nM
same,GI50,[2],440 nM
same,GI50 at 72 h,[3],14000 nM
same,GI50,[4],210 nM
same,GI50 at 72 h,[5],> 20000 nM
same,GI50,[6],480 nM
same,GI50 at 72 h,[7],> 20000 nM
same,GI50,[8],390 nM
CC1=C(I)C(C)=[N+]2C1=C(c1ccc([N+](=O)[O-])cc1)c1c(C)c(I)c(C)n1[B-]2(F)F,pEC50,[9],8.70
CCN(CC)c1ccc(/C=C2\CC/C(=C\c3ccc(N(CCOCCOCCOCCOC)CCOCCOCCOCCOC)cc3)C2=O)cc1,viability at 10 ug/ml,[10],> 80%
same,viability at 10 µg/mL,[11],10%
same,logP,[12],2.32 to 3.04
CCOC(=O)c1cc2c(n1C)-c1[nH]c(=O)ncc1CC2,GI50 at 72 h,[1],> 20000 nM
same,GI50,[2],2300 nM
same,GI50 at 72 h,[3],6000 nM
same,GI50,[4],1080 nM
same,GI50 at 72 h,[5],> 20000 nM
same,GI50,[6],2920 nM
same,GI50 at 72 h,[7],> 20000 nM
same,GI50,[8],2450 nM
O=C1C(/C=C2/Sc3cc(I)ccc3N2CCCCS(=O)(=O)O)=C([O-])C/1=C\c1sc2cc(I)ccc2[n+]1CCCCS(=O)(=O)O,cytotoxicity,[13],< 10%
same,inhibition (INH),[14],95 - 100%
COc1ccc(C2=C3C(C)=C(I)C(C)=[N+]3[B-](F)(F)n3c(C)c(I)c(C)c32)cc1,pEC50,[9],9.19
Cn1ccc2c1-c1[nH]c(=O)ncc1CC2,GI50 at 72 h,[1],> 20000 nM
same,GI50,[2],> 20000 nM
same,GI50 at 72 h,[3],> 20000 nM
same,GI50,[4],> 20000 nM
same,GI50 at 72 h,[5],> 20000 nM
same,GI50,[6],> 20000 nM
same,GI50 at 72 h,[7],> 20000 nM
same,GI50,[8],> 20000 nM
COCCOCCOCCN(CCOCCOCCOC)c1ccc(/C=C2\CC/C(=C\c3ccc(N(CCOCCOCCOC)CCOCCOCCOC)cc3)C2=O)cc1,viability at 10 ug/ml,[10],> 80%
same,viability at 10 µg/mL,[11],60%
same,logP,[12],2.32 to 3.04
CC1(C)C(/C=C/C2=C(Cl)C(=C/C=C3/N(CCCCS(=O)(=O)O)c4ccc(I)cc4C3(C)C)/CCC2)=[N+](CCCCS(=O)(=O)O)c2ccc(I)cc21,"inhibition at 24 h, up to 25 µM",[15],0%
same,inhibition of growth at 6.25 µM,[16],> 10%
same,inhibition of growth at 12.5 µM,[17],> 20%
same,inhibition of growth at 25 µM,[18],40%
same,"inhibition at 24 h, up to 25 µM",[19],0%
same,inhibition of growth at 6.25 µM,[20],30%
same,inhibition of growth at 12.5 µM,[21],> 60%
same,inhibition of growth at 25 µM,[22],> 80%
O=C(O)CCN(CCC(=O)O)c1ccc(/C=C2\CC/C(=C\c3ccc(N(CCC(=O)O)CCC(=O)O)cc3)C2=O)cc1,viability at 50 ug/ml,[23],> 70%
same,viability at 5 µg/mL,[24],> 80%
CC1=C(I)C(C)=[N+]2C1=C(c1ccncc1)c1c(C)c(I)c(C)n1[B-]2(F)F,pEC50,[9],8.89
CC1(C)C(/C=C/C=C/C=C/C=C2\N(CCCCS(=O)(=O)O)c3ccc4ccccc4c3C2(C)C)=[N+](CCCCS(=O)(=O)[O-])c2ccc3ccccc3c21 [INDOCYANINE GREEN],"inhibition at 24 h, up to 25 µM",[15],0%
same,inhibition of growth at 6.25 µM,[16],0%
same,inhibition of growth at 12.5 µM,[17],0%
same,inhibition of growth at 25 µM,[18],0%
same,"inhibition at 24 h, up to 25 µM",[19],0%
same,inhibition of growth at 6.25 µM,[20],0%
same,inhibition of growth at 12.5 µM,[21],0%
same,inhibition of growth at 25 µM,[22],0%
